# According to US20190256827A1, “EPIGENOME EDITING SYSTEMS AND METHODS” (STC.UNM, priority 2017, published 2019):
# Key:
# [1] = tested on: HBA locus in HEK293T cells; assay: ChIP-qPCR of FLAG-ABI-P300 and H3K27Ac at the HBA locus; assay type: cell-based, human; details: HBA sgRNAs; ABA treatment for 48 hours
# Experimental: To determine if the new method can be used to modify H3K27Ac at other gene loci, sgRNAs were designed that target the promoter region of other genes with low expression levels in HEK293T cells, including GRM2, HBA and MYOD1 (Table 1).
# Human embryonic kidney cell HEK293T (American Type Culture Collection, Manassas, Va.) was cultured in Dulbecco's modified Eagle's medium (DMEM) (Gibco) with 10% FBS (Atlanta Biologicals), 1× GlutaMax (Gibco, Thermo Fisher Scientific, Inc., Waltham, Mass.), and 1× penicillin/streptomycin (Pen/Strep; Gibco, Thermo Fisher Scientific, Inc., Waltham, Mass.). Cells (100,000/ml) were plated in 24-well or 10-cm cell culture plate the day before transfection. For each well of 24-well plate transfection, 500 ng of dCas9-PYL-HA, 420 ng of FLAG-ABI-P300, and a total amount of 200-ng mix of gRNAs, with a 50-ng per each gRNA, were mixed with 50×(v/w) Opti-MEM (Gibco, Thermo Fisher Scientific, Inc., Waltham, Mass.), then incubate with the same volume of 3 μg PEI-Opti-MEM solution for 20 minutes at room temperature. Then, 100 μL of PEI-combined plasmids were added to every single well of 24-well plate and cultured for 24 hours before experiments were performed. For a 10 cm plate, 1 mL of PEI-combined plasmids were needed. After six hours transfection, cells were washed and incubated for another 1-72 hours before experiments were performed. […]
# [2] = tested on: GAL4DBD-ABI/VP16AD-PYL, inducible luciferase reporter in HEK293T cells; assay: Inducible luciferase reporter assay, ABA-responsive system (orthogonality); assay type: cell-based, human; details: treated with IAA or ABA or DMSO for 24 hours
# Experimental: To ensure that IAA and ABA could be used to independently control two histone modification editing events, the orthogonality between these two systems was tested. HEK293T cells were co-transfected with either GAL4DBD-TIR1*/VP16AD-AID (responsive to IAA) or GAL4DBD-ABI/VP16AD-PYL (responsive to ABA), and an inducible luciferase reporter construct. This was followed by treating cells with either IAA or ABA (or DMSO as a control) for 24 hours. […] To test the reversibility of IAA-induced dimerization, in which it was critical to achieve precise temporal control, HEK293T cells were co-transfected with GAL4DBD-TIR1*, VP16AD-AID, and an inducible luciferase expression construct, and then treated cells with 50 μM IAA for 24 hours. Cells were then washed with fresh media without IAA to remove the inducer (or no washing as a control). They were then harvested for luciferase assays after washing.
structure (smiles),measurement,setting,value
"CC1=CC(=O)CC(C)(C)[C@@]1(O)/C=C/C(C)=C\C(=O)O [ABA, abscisic acid]",enrichment of FLAG-ABI-P300 at the HBA locus,[1],causes the enrichment
same,enrichment of H3K27Ac at the HBA locus,[1],causes the enrichment
same,"luciferase expression, ABA-responsive system",[2],Only the proper combination of inducer with corresponding binding proteins could induce luciferase expression
